Experimental data published in patent US20190262355A1, “COMBINATION OF A BRD4 INHIBITOR AND AN ANTIFOLATE FOR THE THERAPY OF CANCER” (CeMM-Forschungszentrum für Molekulare Medizin GmbH, priority 2016, published 2019).
One block for each compound: values may come before it. No end group written: not given here.

Assays:
[1] = tested on: WT-KBM7 cells; assay: Cell cycle profile by PI staining and FACS (diploidization); assay type: cell-based, human; conditions: treated overnight during one week, PI incorporation and FACS (FIG. 6D)
Description: For cell cycle analysis, 1 million cells were fixed with 70% ethanol for 24 hours, washed with PBS/1% BSA/0.1% Tween and incubated with RNase for 30 minutes. Nuclei were stained with 5 μg/ml PI (propidium iodide, Sigma) for 10 minutes prior to FACS analysis (BD FACSCalibur Flow Cytometer).
The prerequisite for effective GT genetic screens is a haploid system where monoallelic disruptive GT integration results in gene knock-out (KO). Therefore, KBM7 cells, a chronic myeloid leukemia cell line with near haploid karyotype, were chosen for the generation of the BRD4 reporter cell lines as previously described^15. […] Propidium iodide (PI) incorporation and FACS analysis were used to assay the cell cycle profile of several REDS clones in order to select a haploid clone suitable for GT-based genetic screen. […] REDS1 was the only clonal cell line with haploid karyotype (see FIG. 6B), also confirmed by metaphase spreads (see FIG. 6C).

[2] = target: T1, chromatin-associated MTHFD1 (Homo sapiens, UniProt P11586); assay: Western blot of chromatin associated proteins: MTHFD1; assay type: cell-based; conditions: HAP1 cells, two-hour treatment, 0.5 μM (FIG. 2C)
T1 construct: endogenous in cells; host or cells: HAP1
T1 sequence (P11586 1-935): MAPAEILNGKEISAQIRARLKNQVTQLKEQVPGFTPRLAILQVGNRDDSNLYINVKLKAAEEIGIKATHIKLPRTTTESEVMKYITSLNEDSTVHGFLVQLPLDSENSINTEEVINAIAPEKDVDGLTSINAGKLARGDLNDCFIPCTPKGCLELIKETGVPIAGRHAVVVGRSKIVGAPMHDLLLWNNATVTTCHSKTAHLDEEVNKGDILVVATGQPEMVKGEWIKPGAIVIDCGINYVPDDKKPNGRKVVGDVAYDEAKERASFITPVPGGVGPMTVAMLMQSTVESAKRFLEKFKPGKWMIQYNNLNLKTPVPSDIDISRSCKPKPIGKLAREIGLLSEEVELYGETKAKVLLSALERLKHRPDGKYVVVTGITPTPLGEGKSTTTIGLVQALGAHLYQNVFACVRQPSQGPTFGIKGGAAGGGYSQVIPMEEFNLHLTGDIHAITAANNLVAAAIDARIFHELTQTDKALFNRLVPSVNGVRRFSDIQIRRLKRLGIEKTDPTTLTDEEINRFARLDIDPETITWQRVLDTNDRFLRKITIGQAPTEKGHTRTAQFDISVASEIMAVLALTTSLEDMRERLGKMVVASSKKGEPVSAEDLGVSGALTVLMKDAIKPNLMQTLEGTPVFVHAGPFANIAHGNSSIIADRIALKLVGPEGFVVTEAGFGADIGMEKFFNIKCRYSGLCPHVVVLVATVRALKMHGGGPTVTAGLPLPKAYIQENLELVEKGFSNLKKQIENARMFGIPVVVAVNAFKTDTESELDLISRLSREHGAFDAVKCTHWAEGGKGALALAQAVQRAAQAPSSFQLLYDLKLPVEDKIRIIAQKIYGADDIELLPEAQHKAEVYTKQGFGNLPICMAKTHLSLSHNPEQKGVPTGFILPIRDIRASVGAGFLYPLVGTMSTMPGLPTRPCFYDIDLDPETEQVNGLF
Description: (§1) For Western Blot, proteins were separated on polyacrylamide gels with SDS running buffer (50 mM Tris, 380 mM Glycine, 7 mM SDS) and transferred to nitrocellulose blotting membranes. All membranes were blocked with blocking buffer (5% (m/v) milk powder (BioRad) in TBST (Tris-Buffered Saline with Tween: 50 mM Tris (tris (hydroxymethyl)aminomethane), 150 mM NaCl, 0.05% (v/v) Tween 20, adjusted to pH 7.6). Proteins were probed with antibodies against BRD4 (ab128874, 1:1000, Abcam), Actin (ab16039, 1:1000, Abcam), MTHFD1 (ab70203, Abcam; H120, Santa Cruz; A8, Santa Cruz; all used at 1:1000), GFP (G10362, 1:1000, Life Technology), RCC1 (C-20, 1:1000, Santa Cruz), β-Tubulin (T-4026, 1:1000, Sigma), SHMT1 (ab186130, 1:1000, Abcam) and H2B (ab156197, 1:1000, Abcam) and detected by HRP (horseradish peroxidase) conjugated donkey anti-rabbit IgG antibody (ab16284, 1:5000, Abcam) or donkey anti-mouse IgG antibody (Pierce) and visualized with the Pierce ECL Western Blotting substrate (Amersham), according to the provided protocol.
Cell fractionation and chromatin enrichment was carried out as previously described^29 with some adaptations. […]

[3] = tested on: MTHFD1 binding to genomic loci; assay: ChIP-Seq of MTHFD1 genomic binding in HAP1 cells; assay type: cell-based, human; conditions: 2 h treatment (1 μM per FIG. 16A)
Description: Three 15 cm dishes with cells at 70-80% of confluency were used for one ChIP experiment. Briefly, cells were cross-linked with 1% formaldehyde for 10 minutes at room temperature, and then quenched with 125 mM glycine for 5 minutes at room temperature. Then, cells were washed with cold PBS, collected in 15 ml tubes and washed again with cold PBS by centrifugation at 1200 rpm for 5 minutes at 4° C. and finally snap frozen.
ChIP was performed as described^18 by using BRD4 (Bethyl Laboratories, Inc.) and MTHFD1 (sc-271413, Santa Cruz) antibodies. In brief, crosslinked cell lysates were sonicated in order to shred the chromatin into 200-500 bp fragments. Fragmented chromatin was incubated overnight at 4° C. with antibodies, followed by 2 hours at 4° C. with pre-blocked Dynabeads Protein G (ThermoFisher Scientific). […]
Reads containing adapters were trimmed using Skewer^19 and aligned to the hg19/GRCh37 assembly of the Human genome using Bowtie2^20 with the “—very-sensitive” parameter and duplicate reads were marked and removed with sambamba. Library quality was assessed with the phantomPeakQualtools scripts^21. For visualization exclusively, the inventors generated genome browser tracks with the genomeCoverageBed command in BEDTools^22 and normalized such that each value represents the read count per base pair per million mapped and filtered reads. […]

[4] = target: T2, GST-BRD4 (full length) (Homo sapiens, UniProt O60885); assay: AlphaLISA assay of acetylated MTHFD1 peptides with GST-BRD4; assay type: binding
T2 construct: AlphaLISA assay performed with the indicated MTHFD1 acetylated peptides and GST-BRD4 (full length); made in house
Description: The Amplified Luminescent Proximity Homogenous Assay (AlphaLISA©), a homogenous and chemiluminescence-based method, was performed to explore the direct interaction of BRD4 and acetylated substrates.
Briefly, in this assay, the biotinylated MTHFD1 acetylated peptides (possible substrates) are captured by streptavidin-coupled donor beads. GST-tagged BRD4 (produced as previously described^15) is recognized and bound by an anti-GST antibody conjugated with an acceptor bead. In case of interaction between BRD4 and one acetylated peptide, the proximity between the partners (<200 nm) allows that the excitation (680 nm wavelength) of a donor bead induces the release of a singlet oxygen molecule (^1O2) that then triggers a cascade of energy transfer in the acceptor bead, resulting in a sharp peak of light emission at 615 nm.
GST-BRD4 and each of the MTHFD1 acetylated peptides were incubated together. After 30 minutes, GSH (Glutathione) Acceptor beads (PerkinElmer) were added and after another incubation time of 30 minutes, Streptavidin-conjugated donor beads (PerkinElmer) were added. The signal (alpha counts) was read by the EnVision 2104 Multilabel Reader (PerkinElmer).

[5] = target: T3, BRD4-MTHFD1 interaction (Homo sapiens, UniProt O60885+P11586); assay: MTHFD1 pull-down on HAP1 whole cell lysates (BRD4-MTHFD1 interaction); assay type: binding; conditions: HAP1 whole cell lysates treated with 50 μM (FIG. 9I)
T3 construct: MTHFD1 pull-down performed on HAP1 whole cell lysates treated with 50 μM (S)-JQ1, MTX; endogenous in cells; host or cells: HAP1
Description: For immunoprecipitation, 1 mg of protein extract was incubated overnight at 4° C. with 10 μl of Dynabeads (either A or G, Life technology) preincubated for 2 hours at 4° C. with 1 μg of BRD4 (ab128874, Abcam), MTHFD1 (A8, Santa Cruz) or GFP (G10362, Life Technology) antibodies.

[6] = tested on: MTHFD1 nuclear localization; assay: Nuclear vs cytosol fractionation Western blot in HAP1 cells; assay type: cell-based, human; conditions: 72 hours (FIG. 9D)
Description: as §1

Compound: Cc1sc2c(c1C)C(c1ccc(Cl)cc1)=N[C@H](CC(=O)OC(C)(C)C)c1nnc(C)n1-2 [(R)-JQ1]
diploidization of WT-KBM7 (cell cycle profile) [1]: Only (S)-JQ1 treatment induced WT-KBM7 diploidization

Compound: Cc1sc2c(c1C)C(c1ccc(Cl)cc1)=N[C@@H](CC(=O)NCCCCNC(=O)COc1cccc3c1C(=O)N(C1CCC(=O)NC1=O)C3=O)c1nnc(C)n1-2 (some centres unmarked) [dBET1]
MTHFD1 on chromatin after degronimid treatment [2]: MTHFD1 was lost from chromatin

MTHFD1 on chromatin after degronimid treatment [2]: MTHFD1 was lost from chromatin
Compound: Cc1sc2c(c1C)C(c1ccc(Cl)cc1)=N[C@@H](CC(=O)NCCCCCCCCNC(=O)COc1cccc3c1C(=O)N(C1CCC(=O)NC1=O)C3=O)c1nnc(C)n1-2 (some centres unmarked) [dBET6]
MTHFD1 binding to distinct genomic loci [3]: binding was lost

increase of the alphaLISA signal ([4]; peptide used at high concentration (FIG. 9F)): ~5 fold | alphaLISA peptide titration with GST-BRD4 ([4]; titration (FIG. 9G)): dose-responsive manner
Compound: MTHFD1(47-66)K56ac: synthetic biotinylated MTHFD1 peptide, residues 47-66, acetylated at lysine 56 (DDSNLYINVK(Ac)LKAAEEIGIK; also: biotinylated, site not given here; UniProt P11586 47-66, looked up, fragment)
effect on BRD4-MTHFD1 interaction in MTHFD1 pull-down [5]: not able to inhibit the BRD4-MTHFD1 interaction

Compound: ginkgolic acid
redistribution of MTHFD1 between nucleus and cytoplasm [6]: did not cause a redistribution of MTHFD1 between the nucleus and cytoplasm
